# Assay results reported in ChEMBL document CHEMBL5338713, “Discovery of pomalidomide-based PROTACs for selective degradation of histone deacetylase 8” (Eur J Med Chem, 2022).
# Activity calls are given as the source filed them. The rule behind the calls is not given here.
# What was measured:
# Type in all cases: cell-based
# [1] = molecular target: T1, Histone deacetylase 8 (Homo sapiens) (UniProt Q9BY41); test: Induction of HDAC8 degradation in human HCT-116 cells at 5 uM measured at 24 hrs by Western blot analysis
# T1 sequence (whole entry): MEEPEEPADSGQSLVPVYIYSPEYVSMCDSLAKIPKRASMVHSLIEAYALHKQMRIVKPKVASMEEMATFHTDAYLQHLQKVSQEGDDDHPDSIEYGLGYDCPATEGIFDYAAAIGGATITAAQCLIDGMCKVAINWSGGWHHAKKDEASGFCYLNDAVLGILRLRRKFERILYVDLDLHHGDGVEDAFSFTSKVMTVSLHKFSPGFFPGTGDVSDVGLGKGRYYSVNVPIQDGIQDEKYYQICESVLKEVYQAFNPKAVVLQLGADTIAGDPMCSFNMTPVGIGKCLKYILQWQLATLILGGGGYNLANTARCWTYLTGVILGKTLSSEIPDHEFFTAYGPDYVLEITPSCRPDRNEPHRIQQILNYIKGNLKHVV
# [2] = molecular target: T2, Protein deacetylase HDAC6 (Homo sapiens, UniProt Q9UBN7); test: Induction of HDAC6 degradation in human HCT-116 cells measured after 10 hrs by Western blot analysis
# T2 sequence (Q9UBN7 whole entry): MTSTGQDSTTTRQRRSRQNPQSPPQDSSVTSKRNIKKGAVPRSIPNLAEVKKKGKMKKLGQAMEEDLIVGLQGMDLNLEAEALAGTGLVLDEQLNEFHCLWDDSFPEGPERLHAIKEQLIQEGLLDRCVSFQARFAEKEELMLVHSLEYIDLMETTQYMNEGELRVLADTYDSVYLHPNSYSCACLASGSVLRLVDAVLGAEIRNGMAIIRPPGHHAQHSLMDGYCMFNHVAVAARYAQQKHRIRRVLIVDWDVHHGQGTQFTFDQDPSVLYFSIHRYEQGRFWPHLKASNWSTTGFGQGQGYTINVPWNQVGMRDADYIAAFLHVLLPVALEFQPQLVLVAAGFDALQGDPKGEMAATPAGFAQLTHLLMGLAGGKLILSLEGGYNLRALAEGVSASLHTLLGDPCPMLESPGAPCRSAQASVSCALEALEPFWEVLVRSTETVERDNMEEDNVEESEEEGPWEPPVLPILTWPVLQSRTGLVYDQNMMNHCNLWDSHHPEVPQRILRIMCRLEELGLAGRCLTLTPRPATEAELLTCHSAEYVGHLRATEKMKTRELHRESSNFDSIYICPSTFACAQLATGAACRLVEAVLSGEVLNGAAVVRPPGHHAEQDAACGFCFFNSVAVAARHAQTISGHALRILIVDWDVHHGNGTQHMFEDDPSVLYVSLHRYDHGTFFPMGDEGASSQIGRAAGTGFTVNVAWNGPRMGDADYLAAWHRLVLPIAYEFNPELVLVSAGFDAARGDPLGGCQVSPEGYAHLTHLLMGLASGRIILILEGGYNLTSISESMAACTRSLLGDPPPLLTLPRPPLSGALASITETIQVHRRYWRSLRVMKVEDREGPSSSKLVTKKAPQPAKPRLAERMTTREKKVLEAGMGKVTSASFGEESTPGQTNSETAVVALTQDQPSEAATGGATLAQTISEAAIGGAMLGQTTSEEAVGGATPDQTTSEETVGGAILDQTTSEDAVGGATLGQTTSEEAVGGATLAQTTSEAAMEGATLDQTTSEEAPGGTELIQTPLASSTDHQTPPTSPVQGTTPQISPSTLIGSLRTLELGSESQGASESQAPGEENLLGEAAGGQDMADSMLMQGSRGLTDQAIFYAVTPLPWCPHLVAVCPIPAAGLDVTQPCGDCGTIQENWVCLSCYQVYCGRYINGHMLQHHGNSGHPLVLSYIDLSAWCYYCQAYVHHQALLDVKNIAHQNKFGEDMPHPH
# [3] = molecular target: T3, Protein cereblon/Histone deacetylase 8 (Homo sapiens) (UniProt Q9BY41+Q96SW2); test: PROTAC activity at HDAC8/CRBN in human HCT-116 cells assessed as degradation of HDAC8 at 5 uM measured after 10 hrs in presence of E3 ligase inhibitor by Western blot analysis
# T3 sequence (Q96SW2 whole entry, looked up, one chain of several): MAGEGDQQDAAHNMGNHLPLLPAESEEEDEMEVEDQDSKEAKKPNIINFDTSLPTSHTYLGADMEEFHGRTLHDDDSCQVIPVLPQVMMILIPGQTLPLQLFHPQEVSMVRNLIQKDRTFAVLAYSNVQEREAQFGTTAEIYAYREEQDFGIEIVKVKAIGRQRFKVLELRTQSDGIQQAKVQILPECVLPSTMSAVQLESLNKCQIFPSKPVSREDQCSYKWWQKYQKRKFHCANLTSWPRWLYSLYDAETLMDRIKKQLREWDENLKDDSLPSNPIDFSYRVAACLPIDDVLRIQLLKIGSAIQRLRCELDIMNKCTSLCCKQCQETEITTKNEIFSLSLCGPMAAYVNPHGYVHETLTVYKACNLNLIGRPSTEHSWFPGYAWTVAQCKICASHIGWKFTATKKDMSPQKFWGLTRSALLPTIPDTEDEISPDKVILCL
# [4] = molecular target: T3, Protein cereblon/Histone deacetylase 8 (Homo sapiens); test: PROTAC activity at HDAC8/CRBN in human HCT-116 cells assessed as degradation of HDAC8 at 5 uM measured after 10 hrs in presence of bafilomycin Al by Western blot analysis
# [5] = molecular target: Histone deacetylase 3 (Homo sapiens) (UniProt O15379); test: Induction of HDAC3 degradation in human HCT-116 cells at 0.1 to 160 uM measured after 10 hrs by Western blot analysis; conditions: dose 0.1-160 µM
# Histone deacetylase 3 (Homo sapiens), sequence (O15379 whole entry): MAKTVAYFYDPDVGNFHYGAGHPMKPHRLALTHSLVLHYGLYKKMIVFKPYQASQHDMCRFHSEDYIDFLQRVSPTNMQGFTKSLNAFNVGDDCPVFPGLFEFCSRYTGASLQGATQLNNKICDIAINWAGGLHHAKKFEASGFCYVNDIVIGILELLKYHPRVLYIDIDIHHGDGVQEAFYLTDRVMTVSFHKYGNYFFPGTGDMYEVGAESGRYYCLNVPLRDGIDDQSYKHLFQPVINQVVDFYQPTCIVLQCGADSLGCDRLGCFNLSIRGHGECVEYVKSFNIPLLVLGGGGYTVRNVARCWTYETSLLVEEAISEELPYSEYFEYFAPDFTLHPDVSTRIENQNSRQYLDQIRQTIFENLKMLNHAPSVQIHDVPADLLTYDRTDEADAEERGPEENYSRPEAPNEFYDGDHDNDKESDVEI
# [6] = molecular target: T1, Histone deacetylase 8 (Homo sapiens); test: Induction of HDAC8 degradation in human HCT-116 cells assessed as hook effect measured at > 40 uM for 10 hrs by Western blot analysis
# [7] = molecular target: T3, Protein cereblon/Histone deacetylase 8 (Homo sapiens); test: PROTAC activity at HDAC8/CRBN in human HCT-116 cells assessed as degradation of HDAC8 at 5 uM measured after 10 hrs in presence of BRD73954 by Western blot analysis
# [8] = molecular target: T1, Histone deacetylase 8 (Homo sapiens); test: Induction of HDAC8 degradation in human HCT-116 cells assessed as increase in SMC3 acetylation level measured after 10 hrs by Western blot analysis; conditions: dose 0.1-160 µM
# [9] = molecular target: Histone deacetylase 1 (Homo sapiens) (UniProt Q13547); test: Induction of HDAC1 degradation in human HCT-116 cells at 0.1 to 160 uM measured after 10 hrs by Western blot analysis; conditions: dose 0.1-160 µM
# Histone deacetylase 1 (Homo sapiens), sequence (Q13547 whole entry): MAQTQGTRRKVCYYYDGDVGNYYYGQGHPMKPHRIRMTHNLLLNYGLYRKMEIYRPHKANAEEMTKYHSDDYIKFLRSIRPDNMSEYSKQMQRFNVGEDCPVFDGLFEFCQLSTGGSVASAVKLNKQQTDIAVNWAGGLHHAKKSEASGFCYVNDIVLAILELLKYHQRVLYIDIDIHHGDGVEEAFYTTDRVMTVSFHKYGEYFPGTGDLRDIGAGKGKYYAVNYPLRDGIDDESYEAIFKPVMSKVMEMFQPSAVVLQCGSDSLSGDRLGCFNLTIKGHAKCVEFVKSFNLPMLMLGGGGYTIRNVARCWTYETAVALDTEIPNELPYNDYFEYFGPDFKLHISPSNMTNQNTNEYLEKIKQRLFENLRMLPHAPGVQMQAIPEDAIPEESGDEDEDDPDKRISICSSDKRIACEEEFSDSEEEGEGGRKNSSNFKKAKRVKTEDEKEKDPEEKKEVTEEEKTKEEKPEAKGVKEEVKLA
# [10] = molecular target: T3, Protein cereblon/Histone deacetylase 8 (Homo sapiens); test: PROTAC activity at HDAC8/CRBN in human HCT-116 cells assessed as degradation of HDAC8 at 5 uM measured after 10 hrs in presence of pomalidomide by Western blot analysis
# [11] = molecular target: T1, Histone deacetylase 8 (Homo sapiens); test: Induction of HDAC8 degradation in human HCT-116 cells at 5 uM by Western blot analysis relative to control
# [12] = molecular target: T1, Histone deacetylase 8 (Homo sapiens); test: Induction of HDAC8 degradation in human HCT-116 cells at 5 uM measured at 2 hrs by Western blot analysis
# [13] = molecular target: T3, Protein cereblon/Histone deacetylase 8 (Homo sapiens); test: PROTAC activity at HDAC8/CRBN in human HCT-116 cells assessed as degradation of HDAC8 at 5 uM measured after 10 hrs in presence of MG132 by Western blot analysis
# [14] = molecular target: T4, Protein deacetylase HDAC6 (Homo sapiens) (UniProt Q9UBN7); test: Induction of HDAC6 degradation in human HCT-116 cells assessed as increase in alpha-tubulin acetylation level measured after 10 hrs by Western blot analysis; conditions: dose 0.1-160 µM
# T4 sequence (whole entry): T2 sequence (Q9UBN7 whole entry)
# [15] = molecular target: T1, Histone deacetylase 8 (Homo sapiens); test: Induction of HDAC8 degradation in human HCT-116 cells assessed as maximum degradation at 5 uM measured at 10 hrs by Western blot analysis
# [16] = molecular target: T1, Histone deacetylase 8 (Homo sapiens); test: Induction of HDAC8 degradation in human HCT-116 cells assessed as maximum degradation at 0.1 to 160 uM measured after 10 hrs by Western blot analysis relative to control; conditions: dose 0.1-160 µM
compound,measurement,setting,value
O=C(CCCCOc1ccc(CCNC(=O)c2cccc(C(=O)NO)c2)cc1)NCCCCCCNc1cccc2c1C(=O)N(C1CCC(=O)NC1=O)C2=O (stereo unspecified),Activity,[1],Active
same,DC50,[2],4.95 µM
same,Activity,[3],inactive
same,Activity,[4],Active
same,Activity,[5],inactive
same,Activity,[6],Active
same,Activity,[7],inactive
same,Activity,[8],Dose-Dependent Effect
same,Activity,[9],inactive
same,Activity,[10],inactive
same,Activity,[11],85%
same,Activity,[12],Active
same,Activity,[13],inactive
same,Activity,[14],Dose-Dependent Effect
same,Activity,[15],Active
same,Emax,[16],93%
